Laboratory results taken from US8017585B2, “CXCR4 antagonist and use thereof” (priority 2002, dated 2011).
Bridge positions count the residues as written; N and C are the ends. Square brackets hold non-standard residues; d marks the D form. Peptide text beside a SMILES is read from it. * marks the point of attachment. 2Nal = N[C@@H](Cc1ccc2ccccc2c1)C(=O)O; Benzoyl(4-F) = O=C(c1ccc(F)cc1)*; Cit = NC(=O)NCCC[C@H](N)C(=O)O

Assays:
SUP-T1 cells = assay: Inhibition of CXCL12-induced T-cell derived leukemia cell migration (Transwell); format: cell-based, human; conditions: 10 nM of the antagonist; 30 nM CXCL12; 4 hours
Procedure: 30 nM of CXCL12 (R&D System Company) and 600 μL/well of buffer-A (0.1% bovine serum albumin, DMEM (GibcoBRL) containing 12 mM HEPES) containing the test compound were added to the lower chamber of Transwell filter (polycarbonate filter, 8 μm diameter, Costar Company). The test compound and human cell-derived leukemia SUP-T1 cells (purchased from American Tissue Culture Collection), and 100 μL/well of buffer A containing 2×10^6 cells/mL were added to the upper chamber. After 4 hours' incubation at 37° C. in 5% CO2 incubator, the number of the cells moved to the lower chamber was counted by Coulter counter. Control (−) indicates the migration when CXCL12 was not added. Control (+) indicates the migration when CXCL12 was added. By adding CXCL12, the migration of SUP-T1 cells was enhanced. This CXCL12-induced migration of SUP-T1 cells was inhibited by 10 nM of the antagonist, 4Fbenzoyl-TN-14003. From the foregoing, 4Fbenzoyl-TN-14003, by inhibiting the movement of T-cells at low concentrations, is considered to be useful as an inhibitory drug for chronic rheumatoid arthritis.

mouse splenocytes = conditions: read-out: IC50 value, inhibition of SDF-1-induced migration of mouse splenocytes; SDF-1α 100 ng/mL; 2.5 hours
Procedure: Spleens were isolated from BALB/c mice (male, Charles River Japan, Inc.), converted to single cell suspensions, and splenocytes were prepared by crushing red blood cells.
SDF-1α (Peprotech, final concentration 100 ng/mL) was added to the lower layer of Transwell (pore size 5 μm), 1×10^6/well of the cells (100 μL) were added to the insert, and reacted at 37° C. for 2.5 hours. The cells were incubated with the drug at 37° C. for 30 minutes. Migrating reaction was made in the RPMI-1640 culture media containing 20 mmol/L HEPES, 0.5% BSA. The number of the cells migrated to the lower layer was counted by Coulter Counter. Similarly to the preceding clause, the inhibitory rate against the migration by the drug of each concentration and IC50 value were calculated.

[1] = test system: human breast cancer MDA-MB-231 cells; assay: Inhibition of CXCL12-induced breast cancer cell migration (Transwell); format: cell-based; conditions: 10 nM of the antagonist; 100 nM CXCL12; 15 hours
Procedure: Transwell filter (polycarbonate filter, 8 μm diameter, Costar Company) was treated at 37° C. for 6 hours in 10 μg/mL fibronectin solution and air-dried. 100 nM of CXCL12 (R&D System Company) and 600 μL/well of buffer-A (0.1% bovine serum albumin, DMEM (GibcoBRL) containing 12 mM HEPES) containing the test compound were added to the lower chamber of the Transwell. The test compound and human breast cancer MDA-MB-231 cells (purchased from American Tissue Culture Collection), and 100 μL/well of buffer A containing 2×10^6 cells/mL were added to the upper chamber. […] Cutting off the filter part, adding 0.1 M sodium citrate/50% ethanol solution, and eluting crystal violet absorption at 550 nm was measured. […]
After 15 hours' incubation at 37° C. in 5% CO2 incubator, the upper surface of the filter was wiped and the cell was removed, and then the cell on the lower surface of the filter was fixed and stained with 25% methanol solution containing 0.5% crystal violet (Wako Pure Chemical Ind.), washed by distilled water and air-dried. Cutting off the filter part, adding 0.1 M sodium citrate/50% ethanol solution, and eluting crystal violet absorption at 550 nm was measured. […]

## N=C(N)NCCC[C@H](NC(=O)[C@@H]1CSSC[C@H](NC(=O)[C@H](Cc2ccc3ccccc3c2)NC(=O)[C@H](CCCNC(=N)N)NC(=O)[C@H](CCCNC(=N)N)NC(=O)c2ccc(F)cc2)C(=O)N[C@@H](Cc2ccc(O)cc2)C(=O)N[C@@H](CCCNC(N)=O)C(=O)N[C@@H](CCCCN)C(=O)N[C@H](CCCCN)C(=O)N2CCC[C@H]2C(=O)N[C@@H](Cc2ccc(O)cc2)C(=O)N[C@@H](CCCNC(=N)N)C(=O)N[C@@H](CCCNC(N)=O)C(=O)N1)C(N)=O [4F-benzoyl-TN14003, 4F-benzoyl-Arg-Arg-Nal-Cys-Tyr-Cit-Lys-DLys-Pro-Tyr-Arg-Cit-Cys-Arg-NH2] ({Benzoyl(4-F)}-RR[2Nal]CY[Cit]K[dK]PYR[Cit]CR-NH2; disulfide 4-13)
SUP-T1 cells
  CXCL12-induced migration of SUP-T1 cells: inhibited
Mouse splenocytes
  IC50: 0.54 nM
[1]
  CXCL12-induced migration of MDA-MB-231 cells: inhibited
